Assay results: US20140081017A1, “Histone Deacetylase Inhibitors for Enhancing Activity of Antifungal Agents” (METHYLGENE INC., priority 2012, published 2014)
In brackets after ≈: the same amount, converted by molar mass. Read-outs that look alike come from different tables or passages of the source.

What was measured:
Candida parapsilosis = assay: Minimal Inhibitory Concentration (MIC) assay, broth microdilution per CLSI; format: cell-based; conditions: Lodderomyces parapsilosis, read-out: Minimum Inhibitory Concentrations against Yeast Isolates, Candida parapsilosis;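 also: two read times 24 hr and 48 hr of incubation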
Summary of the method: (§1)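 Steps: overnight yeast growth on Sabouraud dextrose agar at 35° C; 0.5 McFarland saline suspension diluted 1:100 in RPMI (0.165 M MOPS, pH 7.0); inoculation into twofold compound dilutions; incubation 24-48 hr at 35° C; MIC scored as lowest concentration without visible growth.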

Candida albicans = assay: as above; format: cell-based; conditions: Candida albicans, read-out: Minimum Inhibitory Concentrations against Yeast Isolates, Candida albicans;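 also: two read times 24 hr and 48 hr of incubation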
Summary of the method: as §1

Candida glabrata = assay: as above; format: cell-based; conditions: Nakaseomyces glabratus, read-out: Minimum Inhibitory Concentrations against Yeast Isolates, Candida glabrata;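 also: two read times 24 hr and 48 hr of incubation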
Summary of the method: as §1

C. glabrata = assay: Checkerboard FIC assay in combination with fluconazole (MIC alone and in combination, FICI); format: cell-based, Candida glabrata; conditions: for FICI of combination resulting in fluconazole MIC of: 2 ug/mL / FICI of combination resulting in fluconazole MIC of: 4 ug/mL / FICI of combination resulting in fluconazole MIC of: 8 ug/mL: FICI calculated using a fluconazole MIC of 16 μg/mL; for FICI of combination resulting in fluconazole MIC of: 2 ug/mL (value in parenthesis) / FICI of combination resulting in fluconazole MIC of: 4 ug/mL (value in parenthesis) / FICI of combination resulting in fluconazole MIC of: 8 ug/mL (value in parenthesis): FICI using a fluconazole MIC of 128 μg/mL; for MIC: Nakaseomyces glabratus; for Concentration of Methylgene compound to synergize fluconazole MIC to 2 ug/mL / Concentration of Methylgene compound to synergize fluconazole MIC to 4 ug/mL / Concentration of Methylgene compound to synergize fluconazole MIC to 8 ug/mL: in combination with fluconazole; for Concentration of Methylgene compound to synergize fluconazole MIC to 2 ug/mL: fluconazole MIC lowered to 2 ug/mL; for Concentration of Methylgene compound to synergize fluconazole MIC to 4 ug/mL: fluconazole MIC lowered to 4 ug/mL; for Concentration of Methylgene compound to synergize fluconazole MIC to 8 ug/mL: fluconazole MIC lowered to 8 ug/mL; for Multiple of compound MIC to synergize fluconazole MIC to 2 ug/mL / Multiple of compound MIC to synergize fluconazole MIC to 4 ug/mL / Multiple of compound MIC to synergize fluconazole MIC to 8 ug/mL: concentration in combination as multiple of the compound's MIC alone; for Multiple of compound MIC to synergize fluconazole MIC to 2 ug/mL: fluconazole MIC 2 ug/mL; for Multiple of compound MIC to synergize fluconazole MIC to 4 ug/mL: fluconazole MIC 4 ug/mL; for Multiple of compound MIC to synergize fluconazole MIC to 8 ug/mL: fluconazole MIC 8 ug/mL
Summary of the method: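 C. glabrata was tested by CLSI broth microdilution checkerboard, crossing 2-fold dilutions of compound with 2-fold dilutions of fluconazole. The medium was RPMI with 0.165 M MOPS at pH 7.0, inoculated from a 0.5 McFarland suspension diluted 1:100, then incubated about 48 h at 35 °C. Single-agent MICs gave the FIC and FICI values.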

[1] = 24 hr reading (first value of cell 24 hr/48 hr)
[2] = 48 hr reading (second value of cell 24 hr/48 hr)
[3] = MIC of the example compound alone against C. glabrata in the checkerboard assay, approximately 48 hr, read-out: Methylgene MIC
[4] = test compound alone, C. glabrata, approx. 48 hr at 35° C., read-out: Compound MIC

MIC (Candida parapsilosis; [1]) | MIC (Candida parapsilosis; [2]) | MIC (Candida albicans; [1]) | MIC (Candida albicans; [2]) | MIC (Candida glabrata; [1]) | MIC (Candida glabrata; [2]) | FICI of combination resulting in fluconazole MIC of: 2 ug/mL (C. glabrata; C. glabrata) | FICI of combination resulting in fluconazole MIC of: 4 ug/mL (C. glabrata; C. glabrata) | FICI of combination resulting in fluconazole MIC of: 8 ug/mL (C. glabrata; C. glabrata) | FICI of combination resulting in fluconazole MIC of: 2 ug/mL (value in parenthesis) (C. glabrata; C. glabrata) | FICI of combination resulting in fluconazole MIC of: 4 ug/mL (value in parenthesis) (C. glabrata; C. glabrata) | FICI of combination resulting in fluconazole MIC of: 8 ug/mL (value in parenthesis) (C. glabrata; C. glabrata) | MIC (C. glabrata; [3]) | MIC (C. glabrata; [4]) | Concentration of Methylgene compound to synergize fluconazole MIC to 2 ug/mL (C. glabrata; C. glabrata) | Concentration of Methylgene compound to synergize fluconazole MIC to 4 ug/mL (C. glabrata; C. glabrata) | Concentration of Methylgene compound to synergize fluconazole MIC to 8 ug/mL (C. glabrata; C. glabrata) | Multiple of compound MIC to synergize fluconazole MIC to 2 ug/mL (C. glabrata) | Multiple of compound MIC to synergize fluconazole MIC to 4 ug/mL (C. glabrata) | Multiple of compound MIC to synergize fluconazole MIC to 8 ug/mL (C. glabrata) | Compound
> 64 µg/mL | > 64 µg/mL | > 64 µg/mL | > 64 µg/mL | 32 µg/mL (≈ 94 µM) | > 64 µg/mL | > 1.063 | > 0.625 | > 0.750 | > 1.016 | > 0.531 | > 0.563 | > 16 µg/mL | > 16 µg/mL | >16 µg/mL | 16 µg/mL | 16 µg/mL | – | – | – | CC(=O)Nc1ccccc1CCCCc1ccc(CC(=O)NO)cc1 [Example 45, 2-(4-(4-(2-acetamidophenyl)butyl)phenyl)-N-hydroxyacetamide]
> 64 µg/mL | > 64 µg/mL | > 64 µg/mL | > 64 µg/mL | > 64 µg/mL | > 64 µg/mL | 0.375 | 0.500 | 0.625 | 0.266 | 0.281 | 0.188 | 2 µg/mL | 2 µg/mL | 0.5 µg/mL | 0.5 µg/mL | 0.25 µg/mL | (¼x) | (¼x) | (⅛x) | COCCOCCOCCOCCOCCOc1ccc(CCCCc2ccc(CC(=O)NO)cc2)cc1 [Example 10, 2-(4-(4-(4-(2,5,8,11,14-pentaoxahexadecan-16-yloxy)phenyl)butyl)phenyl)-N-hydroxyacetamide]
> 16 µg/mL | > 16 µg/mL | > 16 µg/mL | > 16 µg/mL | > 32 µg/mL | > 32 µg/mL | 0.375 | 0.500 | 0.625 | 0.266 | 0.281 | 0.188 | 2 µg/mL | 2 µg/mL | 0.5 µg/mL | 0.5 µg/mL | 0.25 µg/mL | (¼x) | (¼x) | (⅛x) | O=C(Cc1ccc(CCCCc2ccc(OCCCN3CCOCC3)cc2)cc1)NO [Example 16, N-hydroxy-2-(4-(4-(4-(3-morpholinopropoxy)phenyl)butyl)phenyl)acetamide]
> 16 µg/mL | > 16 µg/mL | > 16 µg/mL | > 16 µg/mL | > 8 µg/mL | > 8 µg/mL | 0.375 | 0.500 | 0.625 | 0.266 | 0.281 | 0.188 | 8 µg/mL | 8 µg/mL | 2 µg/mL | 2 µg/mL | 1 µg/mL | (¼x) | (¼x) | (⅛x) | O=C(Cc1ccc(CCCCc2ccc(O)cc2)cc1)NO [Example 15, N-hydroxy-2-(4-(4-(4-hydroxyphenyl)butyl)phenyl)acetamide]
> 64 µg/mL | > 64 µg/mL | > 64 µg/mL | > 64 µg/mL | 16 µg/mL (≈ 33.6 µM) | 32 µg/mL (≈ 67.3 µM) | 0.313 | 0.250 | 0.375 | 0.266 | 0.156 | 0.188 | 16 µg/mL | 16 µg/mL | 4 µg/mL | 2 µg/mL | 2 µg/mL | (¼x) | (⅛x) | (⅛x) | O=C(Cc1ccc(CCCCc2cccc(NS(=O)(=O)CCN3CCOCC3)c2)cc1)NO [Example 53, N-hydroxy-2-(4-(4-(3-(2-morpholinoethylsulfona-mido)phenyl)butyl)phenyl)acetamide]
32 µg/mL (≈ 107 µM) | 32 µg/mL (≈ 107 µM) | 32 µg/mL (≈ 107 µM) | 32 µg/mL (≈ 107 µM) | > 32 µg/mL | > 32 µg/mL | 0.625 | 0.500 | 0.625 | 0.516 | 0.281 | 0.188 | 2 µg/mL | 2 µg/mL | 1 µg/mL | 0.5 µg/mL | 0.25 µg/mL | (½x) | (¼x) | (⅛x) | Nc1cccc(CCCCc2ccc(CC(=O)NO)cc2)c1 [Example 32, 2-(4-(4-(3-aminophenyl)butyl)phenyl)-N-hydroxyacetamide]
64 µg/mL (≈ 140 µM) | 64 µg/mL (≈ 140 µM) | 64 µg/mL (≈ 140 µM) | 64 µg/mL (≈ 140 µM) | 64 µg/mL (≈ 140 µM) | > 64 µg/mL | 0.375 | 0.500 | 0.625 | 0.266 | 0.281 | 0.188 | 4 µg/mL | 4 µg/mL | 1 µg/mL | 1 µg/mL | 0.5 µg/mL | (¼x) | (¼x) | (⅛x) | COCCOCCOCC(=O)Nc1ccc(CCCCc2ccc(CC(=O)NO)cc2)cc1 [Example 35, N-hydroxy-2-(4-(4-(4-(2-(2-(2-methoxyethoxy)ethoxy)acetamido)phenyl)butyl)phenyl)acetamide]
> 64 µg/mL | > 64 µg/mL | 64 µg/mL (≈ 205 µM) | 64 µg/mL (≈ 205 µM) | 8 µg/mL (≈ 25.6 µM) | 16 µg/mL (≈ 51.2 µM) | 0.313 | 0.375 | 0.375 | 0.266 | 0.281 | 0.188 | 16 µg/mL | 16 µg/mL | 4 µg/mL | 4 µg/mL | 2 µg/mL | (¼x) | (¼x) | (⅛x) | O=C(Cc1ccc(CCC/C(=N\O)c2ccccc2)cc1)NO [Example 27, (E)-N-hydroxy-2-(4-(4-(hydroxyimino)-4-phenylbutyl)phenyl) acetamide]
